System: mTORC2 activity (phosphorylation of Akt at Ser473)
Assay: Cellular selectivity mTORC1 over mTORC2 (p4EBP1 vs pAkt)
Assay type: cell-based, human
From the text: The in vitro profile of RMC-5552 was characterized using standard biochemical and cellular assays to determine the mode of interaction with mTORC1 and mTORC2. The effect of RMC-5552 on established cellular readouts for mTORC1 activity (including phosphorylation of P70S6K at Thr389 and 4EBP1 at Thr37/46), mTORC2 activity (including phosphorylation of Akt at Ser473), and cellular proliferation was monitored.
RMC-5552 binds to the intracellular protein FKBP12 and engages the FRB allosteric site and the ATP binding site on the mTORC1 complex, leading to inhibition of mTOR kinase activity.

Which “selective inhibition of mTORC1 over mTORC2” value does the source give for CO[C@H]1C[C@@H]2CC[C@@H](C)[C@@](O)(O2)C(=O)C(=O)N2CCCC[C@H]2C(=O)O[C@H]([C@H](C)C[C@@H]2CC[C@@H](OC(=O)NCCOCCOCCOCCOCCOCCOCCOCCOCCC(=O)NCCS(=O)(=O)c3ccc(C(=O)N4CCOc5ccc(-c6ccc(N)nc6)cc5C4)c(C)c3F)[C@H](OC)C2)C[C@@H](O)[C@H](C)/C=C(\C)[C@@H](O)[C@@H](OC)C(=O)[C@H](C)C[C@H](C)/C=C/C=C/C=C/1C [RMC-6272] here?
The value was over 10 fold.
